pEC50: −log10 of the molar value.
Target: T1, IDO1 (Homo sapiens, UniProt P14902)
T1 construct: HeLa cells were treated with a test compound in the presence of IFNγ, which induces IDO1 expression; endogenous in cells; host or cells: H1-HeLa cells (ATCC #CRL-1958), induced with IFNγ
Assay: Cell-based (HeLa) assay for measurement of IDO1 inhibition (kynurenine levels in supernatant after IFNγ induction)
Settings: H1-HeLa cells, IFNγ-induced IDO1, 48 hour incubation, kynurenine absorbance at 480 nm; geometric mean of a minimum of four determinations
Procedure: To measure IDO1 inhibition in tissue culture, HeLa cells were treated with a test compound in the presence of IFNγ, which induces IDO1 expression. Following incubation, cell supernatants were assayed for kynurenine levels, an indicator of IDO1 activity.
H1-HeLa cells (ATCC #CRL-1958) were seeded in 384-well plates (Greiner #82051-282) at a volume […] (Corning #15-018-CM) supplemented with 10% FBS (Corning #35-011-CV) and 1% P/S/G (Corning #30-009-CL) at a density of 1,250 cells/well and incubated overnight at 37° C., 5% CO2/100% humidity. The following day, the test compounds were added in DMSO (0.5% final) at various concentrations, and IDO1 was inducibly expressed by the addition of 50 uL/well of 50 ng/mL of INFγ(Peprotech #300-02) in cell plating media. As a positive control, 50 uL of the cell plating media without IFNγ was added to several wells. Following a 48 hour incubation, the plates were spun down at 1,200 RPM for 5 min at 10° C. 65 μL/well of the supernatant was then transferred to new 384-well plates (Thermo #262160) that contained 10 uL/well of 30% TCA (Sigma #T0699), and the plates were sealed and incubated at 60° C. for 30 min. The plates were then centrifuged for 15 min at 2,000 RPM at 10° C. 40 μL/well of the supernatant was transferred to new 384-well plates (Thermo #262160) and was reacted with 40 μL/well of 2% (w/v) p-dimethylaminobenzaldehyde (Sigma #156417) in glacial acetic acid (Sigma #A6283). The reaction was incubated at room temperature for 10 min and absorbance at 480 nm was read using a PerkinElmer Envision plate reader.
Data in Table 1 were normalized based on positive (−IFNγ) and negative (+IFNγ) controls and EC50 values were calculated from the fit of the dose-response curves to a four-parameter equation. All EC50 values represent geometric mean values of a minimum of four determinations. These assays generally produced results within 2-fold of the reported mean.

T1 sequence (P14902 whole entry): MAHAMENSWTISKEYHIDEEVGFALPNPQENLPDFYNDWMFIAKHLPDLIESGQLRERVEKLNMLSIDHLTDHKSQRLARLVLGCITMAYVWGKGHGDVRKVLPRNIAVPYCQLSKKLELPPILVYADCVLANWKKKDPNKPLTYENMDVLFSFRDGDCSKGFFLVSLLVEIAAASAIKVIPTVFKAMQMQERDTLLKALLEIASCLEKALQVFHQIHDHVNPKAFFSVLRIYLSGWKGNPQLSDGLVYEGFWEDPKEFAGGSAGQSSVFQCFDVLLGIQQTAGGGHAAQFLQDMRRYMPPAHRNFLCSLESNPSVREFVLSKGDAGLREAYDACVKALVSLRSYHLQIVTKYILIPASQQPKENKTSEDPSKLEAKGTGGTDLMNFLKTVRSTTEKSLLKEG

Structure (SMILES) | pEC50
O=C(Nc1ccc(F)cc1)c1cc(-c2cccn3c(-c4cccc(F)c4F)ncc23)cnc1C(F)(F)F [Example 47, 5-(3-(2,3-difluorophenyl)imidazo[1,5-a]pyridin-8-yl)-N-(4-fluorophenyl)-2-(trifluoromethyl)nicotinamide] | 7.80
O=C(Nc1ccc(F)cc1)c1cc(-c2cccn3c(-c4cccc(F)c4F)ncc23)ncc1C(F)(F)F [Example 28, 2-(3-(2,3-difluorophenyl)imidazo[1,5-a]pyridin-8-yl)-N-(4-fluorophenyl)-5-(trifluoromethyl)isonicotinamide] | 7.24
Cc1ccc(-c2cccn3c(-c4cnnn4C)ncc23)cc1C(=O)Nc1ccc(F)cc1 [Example 3, N-(4-fluorophenyl)-2-methyl-5-(3-(1-methyl-1H-1,2,3-triazol-5-yl)imidazo[1,5-a]pyridin-8-yl)benzamide] | 5.66
O=C(Nc1ccc(F)cc1)c1cc(-c2cccn3c(-c4cccnn4)ncc23)ccc1C(F)(F)F [Example 17, N-(4-fluorophenyl)-5-(3-(pyridazin-3-yl)imidazo[1,5-a]pyridin-8-yl)-2-(trifluoromethyl)benzamide] | 6.63
O=C(Nc1ccc(F)cc1)c1nc(-c2cccn3c(-c4cccc(F)c4F)ncc23)ccc1Cl [Example 85] | 7.28
Cc1ncc(-c2cccn3c(-c4ccc(F)cc4F)ncc23)cc1C(=O)Nc1ccc(F)cc1 [Example 89, 5-(3-(2,4-difluorophenyl)imidazo[1,5-a]pyridin-8-yl)-N-(4-fluorophenyl)-2-methylnicotinamide] | 7.51
Fc1ccc2[nH]c(-c3cc(-c4cccn5c(-c6cccc(F)c6F)ncc45)ccc3Cl)nc2c1 [Example 96, 2-(2-chloro-5-(3-(2,3-difluorophenyl)imidazo[1,5-a]pyridin-8-yl)phenyl)-5-fluoro-1H-benzo[d]imidazole] | 7.17
O=C(Nc1ccc(F)cc1)c1cc(-c2cccn3c(-c4ccncn4)ncc23)ccc1C(F)(F)F [Example 26, N-(4-fluorophenyl)-5-(3-(pyrimidin-4-yl)imidazo[1,5-a]pyridin-8-yl)-2-(trifluoromethyl)benzamide] | 7.18
Cc1cccc(-c2ncc3c(-c4ccc(C)c(C(=O)Nc5ccc(F)cc5)c4)nccn23)c1 [Example 53, N-(4-fluorophenyl)-2-methyl-5-(3-(m-tolyl)imidazo[1,5-a]pyrazin-8-yl)benzamide] | 5.62
Cc1ccc(-c2cccn3c(-c4ccccc4C(N)=O)nnc23)cc1C(=O)Nc1ccc(F)cc1 [Example 1, 5-(3-(2-carbamoylphenyl)-[1,2,4]triazolo[4,3-a]pyridin-8-yl)-N-(4-fluorophenyl)-2-methylbenzamide] | 5.27
Cc1cccc(-c2ncc3c(-c4cnc(C)c(C(=O)Nc5ccc(F)cc5)c4)cccn23)c1 [Example 22, N-(4-fluorophenyl)-2-methyl-5-(3-(m-tolyl)imidazo[1,5-a]pyridin-8-yl)nicotinamide] | 6.87
Cc1ncc(-c2cccn3c(-c4cc(F)cc(F)c4)ncc23)cc1C(=O)Nc1ccc(F)cc1 [Example 27, 5-(3-(3,5-difluorophenyl)imidazo[1,5-a]pyridin-8-yl)-N-(4-fluorophenyl)-2-methylnicotinamide] | 7.21
O=C(Nc1ccc(F)cc1)c1cc(-c2cccn3c(-c4cccc(F)c4F)ncc23)ccc1C1CC1 [Example 62, 2-cyclopropyl-5-(3-(2,3-difluorophenyl)imidazo[1,5-a]pyridin-8-yl)-N-(4-fluorophenyl)benzamide] | 7.82
Cc1ncc(-c2cccn3c(-c4ncccn4)ncc23)cc1C(=O)Nc1ccc(F)cc1 [Example 25, N-(4-fluorophenyl)-2-methyl-5-(3-(pyrimidin-2-yl)imidazo[1,5-a]pyridin-8-yl)nicotinamide] | 7.16
O=C(Nc1ccc(F)cc1)c1cc(-c2cccn3c(-c4ccnc5ccccc45)ncc23)ccc1C(F)(F)F [Example 21, N-(4-fluorophenyl)-5-(3-(quinolin-4-yl)imidazo[1,5-a]pyridin-8-yl)-2-(trifluoromethyl)benzamide] | 6.74
Cc1ncc(-c2cccn3c(-c4ncccc4F)ncc23)cc1C(=O)Nc1ccc(F)cc1 [Example 19, N-(4-fluorophenyl)-5-(3-(3-fluoropyridin-2-yl)imidazo[1,5-a]pyridin-8-yl)-2-methylnicotinamide] | 6.70
Cc1ccc(-c2cccn3c(-c4ccccc4C)nnc23)cc1C(=O)Nc1ccc(F)cc1 [Example 12, N-(4-fluorophenyl)-2-methyl-5-(3-(o-tolyl)-[1,2,4]triazolo[4,3-a]pyridin-8-yl)benzamide] | 6.40
Cc1ccc(-c2cccn3c(-c4ccccc4)nnc23)cc1C(=O)Nc1ccc(F)cc1 [Example 9, N-(4-fluorophenyl)-2-methyl-5-(3-phenyl-[1,2,4]triazolo[4,3-a]pyridin-8-yl)benzamide] | 6.09
Cc1ccc(-c2cccn3c(-c4cn(C)cn4)ncc23)cc1C(=O)Nc1ccc(F)cc1 [Example 14, N-(4-fluorophenyl)-2-methyl-5-(3-(1-methyl-1H-imidazol-4-yl)imidazo[1,5-a]pyridin-8-yl)benzamide] | 6.49
O=C(Nc1ccc(F)cc1)c1cc(-c2cccn3c(-c4cc[nH]n4)ncc23)ccc1C(F)(F)F [Example 32, 5-(3-(1H-pyrazol-3-yl)imidazo[1,5-a]pyridin-8-yl)-N-(4-fluorophenyl)-2-(trifluoromethyl)benzamide] | 7.46
Cc1ncc(-c2cccn3c(C4CCC4)ncc23)cc1C(=O)Nc1ccc(F)cc1 [Example 91, 5-(3-cyclobutylimidazo[1,5-a]pyridin-8-yl)-N-(4-fluorophenyl)-2-methylnicotinamide] | 6.05
Cc1ncc(-c2cccn3c(-c4cccc(F)c4F)ncc23)cc1C(=O)Nc1ccc(C#N)c(C(F)(F)F)c1 [Example 59, N-(4-cyano-3-(trifluoromethyl)phenyI)-5-(3-(2,3-difluorophenyl)imidazo[1,5-a]pyridin-8-yl)-2-methylnicotinamide] | 6.64

Further compounds by rising pEC50, results first:

pEC50 | Structure (SMILES)
5.72 | Cc1ncc(-c2ccnn3c(-c4cccc(F)c4F)nnc23)cc1C(=O)Nc1ccc(F)cc1 [Example 50, 5-(3-(2,3-difluorophenyl)-[1,2,4]triazolo[4,3-b]pyridazin-8-yl)-N-(4-fluorophenyl)-2-methylnicotinamide]
6.96 | Cc1ncc(-c2cccn3c(-c4cccc(F)c4F)ncc23)cc1C(=O)Nc1ccc(OC(F)(F)F)cc1 [Example 58, 5-(3-(2,3-difluorophenyl)imidazo[1,5-a]pyridin-8-yl)-2-methyl-N-(4-(trifluoromethoxy)phenyl)nicotinamide]
7.24 | Cc1ncc(-c2cccn3c(-c4cccc(F)c4F)ncc23)cc1C(=O)Nc1ccncc1 [Example 69, 5-(3-(2,3-difluorophenyl)imidazo[1,5-a]pyridin-8-yl)-2-methyl-N-(pyridin-4-yl)nicotinamide]
7.31 | Cc1ncc(-c2cccn3c(-c4cccc(Cl)c4F)ncc23)cc1C(=O)Nc1ccc(F)cc1 [Example 88]
7.51 | O=C(Nc1ccc(F)cc1)c1cc(-c2cccn3c(-c4ccccn4)ncc23)ccc1C(F)(F)F [Example 33, N-(4-fluorophenyl)-5-(3-(pyridin-2-yl)imidazo[1,5-a]pyridin-8-yl)-2-(trifluoromethyl)benzamide]
7.53 | Cc1ccc(-c2cccn3c(-c4cccc(F)c4F)ncc23)cc1C(=O)Nc1ccc(F)cc1 [Example 34, 5-(3-(2,3-difluorophenyl)imidazo[1,5-a]pyridin-8-yl)-N-(4-fluorophenyl)-2-methylbenzamide]
7.62 | Cc1ccc(-c2cccn3c(-c4ncccn4)ncc23)cc1C(=O)Nc1ccc(F)cc1 [Example 37, N-(4-fluorophenyl)-2-methyl-5-(3-(pyrimidin-2-yl)imidazo[1,5-a]pyridin-8-yl)benzamide]
7.70 | O=C(Nc1ccc(F)cc1)c1cc(-c2cccn3c(-c4cccc(F)c4F)ncc23)ccc1C(F)F [Example 41, 2-(difluoromethyl)-5-(3-(2,3-difluorophenyl)imidazo[1,5-a]pyridin-8-yl)-N-(4-fluorophenyl)benzamide]
7.79 | O=C(Nc1ccc(F)cc1)c1cc(-c2cccn3c(-c4ncco4)ncc23)ccc1C(F)(F)F [Example 46, N-(4-fluorophenyl)-5-(3-(oxazol-2-yl)imidazo[1,5-a]pyridin-8-yl)-2-(trifluoromethyl)benzamide]
7.91 | O=C(Nc1ccc(F)cc1)c1cc(-c2cccn3c(-c4cccc(F)c4F)ncc23)ccc1Cl [Example 70, 2-chloro-5-(3-(2,3-difluorophenyl)imidazo[1,5-a]pyridin-8-yl)-N-(4-fluorophenyl)benzamide]

From patent publication US11040033B2 (Gilead Sciences, Inc., priority 2017, dated 2021)
